# Assay results: the CheMixHub viscosity set
# ± gives the uncertainty stated by the source.
# Test: xn = mol fraction of the nth substance listed
# Settings: 101 kPa
smiles,measurement,setting,value
OCCCO + CS(C)=O,viscosity,"293.15 K, x1 = 0.0513",2.47 ± 0.03 mPa·s
same,viscosity,"293.15 K, x1 = 0.1024",2.88 ± 0.03 mPa·s
same,viscosity,"293.15 K, x1 = 0.1534",3.26 ± 0.03 mPa·s
same,viscosity,"293.15 K, x1 = 0.2043",3.74 ± 0.03 mPa·s
same,viscosity,"293.15 K, x1 = 0.255",4.29 ± 0.04 mPa·s
same,viscosity,"293.15 K, x1 = 0.3056",4.96 ± 0.04 mPa·s
same,viscosity,"293.15 K, x1 = 0.356",5.73 ± 0.04 mPa·s
same,viscosity,"293.15 K, x1 = 0.4064",6.64 ± 0.05 mPa·s
same,viscosity,"293.15 K, x1 = 0.4566",7.69 ± 0.05 mPa·s
same,viscosity,"293.15 K, x1 = 0.5066",9 ± 0.06 mPa·s
same,viscosity,"293.15 K, x1 = 0.5565",10.6 ± 0.1 mPa·s
same,viscosity,"293.15 K, x1 = 0.6063",12.5 ± 0.1 mPa·s
same,viscosity,"293.15 K, x1 = 0.6556",14.7 ± 0.1 mPa·s
same,viscosity,"293.15 K, x1 = 0.7055",17.6 ± 0.1 mPa·s
same,viscosity,"293.15 K, x1 = 0.7549",21 ± 0.1 mPa·s
same,viscosity,"293.15 K, x1 = 0.8042",25.2 ± 0.2 mPa·s
same,viscosity,"293.15 K, x1 = 0.8533",30.4 ± 0.2 mPa·s
same,viscosity,"293.15 K, x1 = 0.9024",36.5 ± 0.2 mPa·s
same,viscosity,"293.15 K, x1 = 0.9512",43.8 ± 0.3 mPa·s
same,viscosity,"298.15 K, x1 = 0.0513",2.13 ± 0.03 mPa·s
same,viscosity,"298.15 K, x1 = 0.1024",2.59 ± 0.03 mPa·s
same,viscosity,"298.15 K, x1 = 0.1534",2.95 ± 0.03 mPa·s
same,viscosity,"298.15 K, x1 = 0.2043",3.35 ± 0.03 mPa·s
same,viscosity,"298.15 K, x1 = 0.255",3.84 ± 0.04 mPa·s
same,viscosity,"298.15 K, x1 = 0.3056",4.32 ± 0.04 mPa·s
same,viscosity,"298.15 K, x1 = 0.356",5.04 ± 0.04 mPa·s
same,viscosity,"298.15 K, x1 = 0.4064",5.81 ± 0.04 mPa·s
same,viscosity,"298.15 K, x1 = 0.4566",6.73 ± 0.05 mPa·s
same,viscosity,"298.15 K, x1 = 0.5066",7.73 ± 0.05 mPa·s
same,viscosity,"298.15 K, x1 = 0.5565",9.09 ± 0.06 mPa·s
same,viscosity,"298.15 K, x1 = 0.6063",10.6 ± 0.1 mPa·s
same,viscosity,"298.15 K, x1 = 0.6556",12.5 ± 0.1 mPa·s
same,viscosity,"298.15 K, x1 = 0.7055",14.8 ± 0.1 mPa·s
same,viscosity,"298.15 K, x1 = 0.7549",17.6 ± 0.1 mPa·s
same,viscosity,"298.15 K, x1 = 0.8042",21 ± 0.1 mPa·s
same,viscosity,"298.15 K, x1 = 0.8533",25 ± 0.2 mPa·s
same,viscosity,"298.15 K, x1 = 0.9024",29.8 ± 0.2 mPa·s
same,viscosity,"298.15 K, x1 = 0.9512",35.5 ± 0.2 mPa·s
same,viscosity,"303.15 K, x1 = 0.0513",2.03 ± 0.03 mPa·s
same,viscosity,"303.15 K, x1 = 0.1024",2.32 ± 0.03 mPa·s
same,viscosity,"303.15 K, x1 = 0.1534",2.63 ± 0.03 mPa·s
same,viscosity,"303.15 K, x1 = 0.2043",2.99 ± 0.03 mPa·s
same,viscosity,"303.15 K, x1 = 0.255",3.41 ± 0.03 mPa·s
same,viscosity,"303.15 K, x1 = 0.3056",3.8 ± 0.04 mPa·s
same,viscosity,"303.15 K, x1 = 0.356",4.44 ± 0.04 mPa·s
same,viscosity,"303.15 K, x1 = 0.4064",5.05 ± 0.04 mPa·s
same,viscosity,"303.15 K, x1 = 0.4566",5.82 ± 0.04 mPa·s
same,viscosity,"303.15 K, x1 = 0.5066",6.65 ± 0.05 mPa·s
same,viscosity,"303.15 K, x1 = 0.5565",7.76 ± 0.05 mPa·s
same,viscosity,"303.15 K, x1 = 0.6063",9.02 ± 0.06 mPa·s
same,viscosity,"303.15 K, x1 = 0.6556",10.6 ± 0.1 mPa·s
same,viscosity,"303.15 K, x1 = 0.7055",12.4 ± 0.1 mPa·s
same,viscosity,"303.15 K, x1 = 0.7549",14.6 ± 0.1 mPa·s
same,viscosity,"303.15 K, x1 = 0.8042",17.3 ± 0.1 mPa·s
same,viscosity,"303.15 K, x1 = 0.8533",20.5 ± 0.1 mPa·s
same,viscosity,"303.15 K, x1 = 0.9024",24.2 ± 0.2 mPa·s
same,viscosity,"303.15 K, x1 = 0.9512",28.5 ± 0.2 mPa·s
same,viscosity,"308.15 K, x1 = 0.0513",1.84 ± 0.03 mPa·s
same,viscosity,"308.15 K, x1 = 0.1024",2.09 ± 0.03 mPa·s
same,viscosity,"308.15 K, x1 = 0.1534",2.35 ± 0.03 mPa·s
same,viscosity,"308.15 K, x1 = 0.2043",2.67 ± 0.03 mPa·s
same,viscosity,"308.15 K, x1 = 0.255",3.02 ± 0.03 mPa·s
same,viscosity,"308.15 K, x1 = 0.3056",3.43 ± 0.03 mPa·s
same,viscosity,"308.15 K, x1 = 0.356",3.87 ± 0.04 mPa·s
same,viscosity,"308.15 K, x1 = 0.4064",4.42 ± 0.04 mPa·s
same,viscosity,"308.15 K, x1 = 0.4566",5.05 ± 0.04 mPa·s
same,viscosity,"308.15 K, x1 = 0.5066",5.81 ± 0.04 mPa·s
same,viscosity,"308.15 K, x1 = 0.5565",6.67 ± 0.05 mPa·s
same,viscosity,"308.15 K, x1 = 0.6063",7.72 ± 0.05 mPa·s
same,viscosity,"308.15 K, x1 = 0.6556",8.96 ± 0.06 mPa·s
same,viscosity,"308.15 K, x1 = 0.7055",10.4 ± 0.1 mPa·s
same,viscosity,"308.15 K, x1 = 0.7549",12.2 ± 0.1 mPa·s
same,viscosity,"308.15 K, x1 = 0.8042",14.3 ± 0.1 mPa·s
same,viscosity,"308.15 K, x1 = 0.8533",16.8 ± 0.1 mPa·s
same,viscosity,"308.15 K, x1 = 0.9024",19.7 ± 0.1 mPa·s
same,viscosity,"308.15 K, x1 = 0.9512",23.1 ± 0.2 mPa·s
same,viscosity,"313.15 K, x1 = 0.0513",1.7 ± 0.03 mPa·s
same,viscosity,"313.15 K, x1 = 0.1024",1.89 ± 0.03 mPa·s
same,viscosity,"313.15 K, x1 = 0.1534",2.14 ± 0.03 mPa·s
same,viscosity,"313.15 K, x1 = 0.2043",2.4 ± 0.03 mPa·s
same,viscosity,"313.15 K, x1 = 0.255",2.71 ± 0.03 mPa·s
same,viscosity,"313.15 K, x1 = 0.3056",3.09 ± 0.03 mPa·s
same,viscosity,"313.15 K, x1 = 0.356",3.47 ± 0.03 mPa·s
same,viscosity,"313.15 K, x1 = 0.4064",3.92 ± 0.04 mPa·s
same,viscosity,"313.15 K, x1 = 0.4566",4.46 ± 0.04 mPa·s
same,viscosity,"313.15 K, x1 = 0.5066",5.08 ± 0.04 mPa·s
same,viscosity,"313.15 K, x1 = 0.5565",5.81 ± 0.04 mPa·s
same,viscosity,"313.15 K, x1 = 0.6063",6.7 ± 0.05 mPa·s
same,viscosity,"313.15 K, x1 = 0.6556",7.67 ± 0.05 mPa·s
same,viscosity,"313.15 K, x1 = 0.7055",8.88 ± 0.06 mPa·s
same,viscosity,"313.15 K, x1 = 0.7549",10.3 ± 0.1 mPa·s
same,viscosity,"313.15 K, x1 = 0.8042",12 ± 0.1 mPa·s
same,viscosity,"313.15 K, x1 = 0.8533",14 ± 0.1 mPa·s
same,viscosity,"313.15 K, x1 = 0.9024",16.4 ± 0.1 mPa·s
same,viscosity,"313.15 K, x1 = 0.9512",19 ± 0.1 mPa·s
same,viscosity,"318.15 K, x1 = 0.0513",1.61 ± 0.03 mPa·s
same,viscosity,"318.15 K, x1 = 0.1024",1.78 ± 0.03 mPa·s
same,viscosity,"318.15 K, x1 = 0.1534",2 ± 0.03 mPa·s
same,viscosity,"318.15 K, x1 = 0.2043",2.24 ± 0.03 mPa·s
same,viscosity,"318.15 K, x1 = 0.255",2.41 ± 0.03 mPa·s
